Measured values published in patent publication US12630530B2, “FGFR inhibitor compound and use thereof” (HENAN MEDINNO PHARMACEUTICAL TECHNOLOGY CO., LTD., priority 2020, dated 2026).

Experiments:
Type in all cases: biochemical
Settings in all cases: Table 3; same method as Assay I, different experimental operator
FGFR3 V555M = target: T1, FGFR3 V555M (Homo sapiens, UniProt P22607, V555M); assay: Assay III: inhibitory activity against FGFR mutants (method of Assay I, different operator)
T1 construct: purchased Signalchem F06-12GG
Procedure: (§1) 1×Kinase reaction buffer was formulated with 1×volume of 5× kinase reaction buffer and 4×volume of water; 5 mM MgCl2; and 1 mM DTT.
(§2) 2.3 Screening of Compounds: • 1. Diluting a compound 4-fold in a dilution plate with DMSO, with a starting compound concentration of 2 mM (4 mM for Nentedanib). • 2. Diluting the compound 40-fold into 1× kinase reaction buffer and shaking it on a shaker for 20 minutes. • 3. […] Adding 1 μl of the compound diluted in buffer to each well, sealing the plate with a sealing membrane and centrifuging the plate at 1000 g for 30 seconds and leaving it at room temperature for 10 minutes. • 6. Formulating 2.5×TK-substrate-biotin and ATP mixture with 1× enzyme reaction buffer and adding 2 μl of K-substrate-biotin/ATP mixture to the reaction plate. • 7. Sealing the plate with a sealing membrane and centrifuging the plate at 1000 g for 30 seconds and allowing it to react at room temperature for 50 minutes. • 8. Formulating 4×Sa-XL 665 (250 nM) with HTRF assay buffer. • 9. Adding 5 μl Sa-XL 665 and 5 μl TK-Antibody-Cryptate to each well, centrifuging it at 1000 g for 30 seconds, and allowing it to react for 1 hour at room temperature. • 10. Reading fluorescence signals at 615 nm (Cryptate) and 665 nm (XL665) with Biotek. 3. Data Analysis
(§3) 3.1 Calculation of the ratio for each well: the ratio was calculated as 665/615 nm.
(§4) 3.3 Calculation of IC50 and plotting of inhibition curves for the compounds.
(§5) The IC50 (half inhibition concentration) of a compound was obtained using the following non-linear fitting equation, wherein data analysis was performed using Graphpad 6.0 software.
(§6) Data were exported from Envision and analyzed manually. The ratios were converted to inhibition rates and IC50 was calculated by Prism GraphPad 6.0 from the inhibition rates. IC50 was calculated again by the ratios to verify accuracy of the results.
(§7) Assay III: Determination of Inhibitory Activity Against FGFR Mutants

FGFR2 V564F = target: T2, FGFR2 V564F (Homo sapiens, UniProt P21802, V564F); assay: as above
T2 construct: purchased Signalchem F05-12FG
Procedure: as §1, §2, §3, §4, §5, §6, §7

FGFR1 V561M = target: T3, FGFR1 V561M (Homo sapiens, UniProt P11362, V561M); assay: as above
T3 construct: purchased Signalchem F04-13G
Procedure: as §1, §2, §3, §4, §5, §6, §7

VEGFR2 = target: T4, VEGFR2 (Homo sapiens, UniProt P35968); assay: Assay III: kinase inhibition (method of Assay I, different operator), VEGFR2
T4 construct: purchased Carna 08-191
Procedure: as §1
2.3 Screening of Compounds: • 1. Diluting a compound 4-fold in a dilution plate with DMSO, with a starting compound concentration of 2 mM (4 mM for Nentedanib). • 2. Diluting the compound 40-fold into 1× kinase reaction buffer and shaking it on a shaker for 20 minutes. • 3. Formulating 2×FGFR1 V561M/FGFR2 V564F/FGFR3 K650E/VEGFR2 with 1× of enzyme reaction buffer. • 4. Adding 2 μl FGFR1 V561M/FGFR2 V564F/FGFR3 K650E/VEGFR2 kinase (formulated in step 3) to each well of the reaction plate. • 5. Adding 1 μl of the compound diluted in buffer to each well, sealing the plate with a sealing membrane and centrifuging the plate at 1000 g for 30 seconds and leaving it at room temperature for 10 minutes. • 6. Formulating 2.5×TK-substrate-biotin and ATP mixture with 1× enzyme reaction buffer and adding 2 μl of K-substrate-biotin/ATP mixture to the reaction plate. • 7. Sealing the plate with a sealing membrane and centrifuging the plate at 1000 g for 30 seconds and allowing it to react at room temperature for 50 minutes. • 8. Formulating 4×Sa-XL 665 (250 nM) with HTRF assay buffer. • 9. Adding 5 μl Sa-XL 665 and 5 μl TK-Antibody-Cryptate to each well, centrifuging it at 1000 g for 30 seconds, and allowing it to react for 1 hour at room temperature. • 10. Reading fluorescence signals at 615 nm (Cryptate) and 665 nm (XL665) with Biotek. 3. Data Analysis
as §3, §4
The IC50 (half inhibition concentration) of a compound was obtained using the following non-linear fitting equation, wherein data analysis was performed using Graphpad 6.0 software. Y=Bottom+(Top−Bottom)/(1+10^((Log IC50−X)*Hill Slope)) • X: log value of compound concentration; and Y: inhibition rate (% inh) 3.4 Validation of Results
as §6, §7

T1 sequence (P22607 23-806 V555M): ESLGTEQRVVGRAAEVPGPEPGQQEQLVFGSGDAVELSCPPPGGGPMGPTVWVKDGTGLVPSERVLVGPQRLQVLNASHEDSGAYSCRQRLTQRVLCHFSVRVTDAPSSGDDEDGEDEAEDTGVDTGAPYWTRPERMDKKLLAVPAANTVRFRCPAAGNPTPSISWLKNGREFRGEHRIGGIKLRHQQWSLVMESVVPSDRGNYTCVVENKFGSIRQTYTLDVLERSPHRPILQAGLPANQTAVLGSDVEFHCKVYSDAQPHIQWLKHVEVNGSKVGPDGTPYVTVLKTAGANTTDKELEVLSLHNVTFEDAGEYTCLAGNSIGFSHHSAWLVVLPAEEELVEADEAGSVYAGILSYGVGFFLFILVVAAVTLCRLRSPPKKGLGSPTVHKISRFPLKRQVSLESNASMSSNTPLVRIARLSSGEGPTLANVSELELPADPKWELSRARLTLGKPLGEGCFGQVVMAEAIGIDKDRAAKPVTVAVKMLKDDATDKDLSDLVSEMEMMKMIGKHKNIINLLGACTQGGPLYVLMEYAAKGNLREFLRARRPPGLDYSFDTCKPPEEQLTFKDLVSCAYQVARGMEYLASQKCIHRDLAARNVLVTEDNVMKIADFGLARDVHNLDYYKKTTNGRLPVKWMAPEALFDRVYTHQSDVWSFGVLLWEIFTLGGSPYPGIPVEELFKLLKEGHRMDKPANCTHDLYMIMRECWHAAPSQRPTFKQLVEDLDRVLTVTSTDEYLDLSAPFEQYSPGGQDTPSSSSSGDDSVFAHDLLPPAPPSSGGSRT
T4 sequence (P35968 20-1356): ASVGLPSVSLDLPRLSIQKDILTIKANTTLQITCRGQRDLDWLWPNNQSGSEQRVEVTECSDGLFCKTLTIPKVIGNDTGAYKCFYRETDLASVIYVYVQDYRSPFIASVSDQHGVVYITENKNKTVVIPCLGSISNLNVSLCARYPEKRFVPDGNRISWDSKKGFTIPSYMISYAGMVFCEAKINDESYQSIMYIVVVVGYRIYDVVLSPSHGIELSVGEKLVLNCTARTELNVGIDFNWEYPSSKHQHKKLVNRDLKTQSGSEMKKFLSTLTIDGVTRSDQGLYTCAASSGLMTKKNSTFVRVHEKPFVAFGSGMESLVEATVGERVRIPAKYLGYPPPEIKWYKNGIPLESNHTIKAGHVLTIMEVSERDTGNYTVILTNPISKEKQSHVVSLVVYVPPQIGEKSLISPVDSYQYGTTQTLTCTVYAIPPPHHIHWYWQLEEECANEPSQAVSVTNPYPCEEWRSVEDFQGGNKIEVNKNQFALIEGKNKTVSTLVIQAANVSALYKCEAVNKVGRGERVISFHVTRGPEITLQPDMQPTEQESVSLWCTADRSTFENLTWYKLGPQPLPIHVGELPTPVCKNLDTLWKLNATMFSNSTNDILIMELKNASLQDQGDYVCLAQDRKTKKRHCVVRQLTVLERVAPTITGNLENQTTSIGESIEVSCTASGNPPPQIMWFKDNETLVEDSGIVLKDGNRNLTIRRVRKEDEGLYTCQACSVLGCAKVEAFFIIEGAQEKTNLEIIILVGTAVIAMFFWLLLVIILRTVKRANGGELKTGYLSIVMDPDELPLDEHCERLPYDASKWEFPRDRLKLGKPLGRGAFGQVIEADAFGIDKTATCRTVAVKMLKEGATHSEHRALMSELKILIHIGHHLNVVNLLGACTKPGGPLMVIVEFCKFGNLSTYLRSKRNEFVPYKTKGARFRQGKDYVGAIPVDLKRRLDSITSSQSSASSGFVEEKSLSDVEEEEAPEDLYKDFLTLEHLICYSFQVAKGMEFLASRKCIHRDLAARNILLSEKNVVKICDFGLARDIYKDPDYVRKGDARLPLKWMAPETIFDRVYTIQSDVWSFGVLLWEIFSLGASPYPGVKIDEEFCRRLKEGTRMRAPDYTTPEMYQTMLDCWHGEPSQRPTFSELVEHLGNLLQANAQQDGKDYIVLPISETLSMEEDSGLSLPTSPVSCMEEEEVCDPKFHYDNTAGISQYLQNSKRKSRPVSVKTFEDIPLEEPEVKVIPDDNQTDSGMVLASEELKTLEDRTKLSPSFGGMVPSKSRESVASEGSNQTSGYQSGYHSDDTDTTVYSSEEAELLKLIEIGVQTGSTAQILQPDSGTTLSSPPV
T2 sequence (P21802 22-821 V564F): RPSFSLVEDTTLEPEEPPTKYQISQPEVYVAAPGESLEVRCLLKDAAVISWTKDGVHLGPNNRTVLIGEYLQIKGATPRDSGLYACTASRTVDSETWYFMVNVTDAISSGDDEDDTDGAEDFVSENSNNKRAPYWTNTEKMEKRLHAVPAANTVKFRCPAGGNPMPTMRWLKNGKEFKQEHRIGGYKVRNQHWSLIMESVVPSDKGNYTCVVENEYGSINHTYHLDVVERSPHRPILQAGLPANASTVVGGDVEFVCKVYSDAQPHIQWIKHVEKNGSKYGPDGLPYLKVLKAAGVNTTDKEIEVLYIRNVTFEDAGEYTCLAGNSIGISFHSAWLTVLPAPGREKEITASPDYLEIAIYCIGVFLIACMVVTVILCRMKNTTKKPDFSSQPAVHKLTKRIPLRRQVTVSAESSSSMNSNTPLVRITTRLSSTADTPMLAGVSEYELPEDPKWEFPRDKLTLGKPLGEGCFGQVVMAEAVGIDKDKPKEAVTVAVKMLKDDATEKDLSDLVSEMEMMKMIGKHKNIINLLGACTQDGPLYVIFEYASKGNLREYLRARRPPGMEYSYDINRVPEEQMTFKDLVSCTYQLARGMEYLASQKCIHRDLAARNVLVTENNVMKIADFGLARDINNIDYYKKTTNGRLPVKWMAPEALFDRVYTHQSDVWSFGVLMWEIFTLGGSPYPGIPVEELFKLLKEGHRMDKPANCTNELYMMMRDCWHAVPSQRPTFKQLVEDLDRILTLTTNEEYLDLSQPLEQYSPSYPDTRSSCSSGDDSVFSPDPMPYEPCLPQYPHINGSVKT
T3 sequence (P11362 22-822 V561M): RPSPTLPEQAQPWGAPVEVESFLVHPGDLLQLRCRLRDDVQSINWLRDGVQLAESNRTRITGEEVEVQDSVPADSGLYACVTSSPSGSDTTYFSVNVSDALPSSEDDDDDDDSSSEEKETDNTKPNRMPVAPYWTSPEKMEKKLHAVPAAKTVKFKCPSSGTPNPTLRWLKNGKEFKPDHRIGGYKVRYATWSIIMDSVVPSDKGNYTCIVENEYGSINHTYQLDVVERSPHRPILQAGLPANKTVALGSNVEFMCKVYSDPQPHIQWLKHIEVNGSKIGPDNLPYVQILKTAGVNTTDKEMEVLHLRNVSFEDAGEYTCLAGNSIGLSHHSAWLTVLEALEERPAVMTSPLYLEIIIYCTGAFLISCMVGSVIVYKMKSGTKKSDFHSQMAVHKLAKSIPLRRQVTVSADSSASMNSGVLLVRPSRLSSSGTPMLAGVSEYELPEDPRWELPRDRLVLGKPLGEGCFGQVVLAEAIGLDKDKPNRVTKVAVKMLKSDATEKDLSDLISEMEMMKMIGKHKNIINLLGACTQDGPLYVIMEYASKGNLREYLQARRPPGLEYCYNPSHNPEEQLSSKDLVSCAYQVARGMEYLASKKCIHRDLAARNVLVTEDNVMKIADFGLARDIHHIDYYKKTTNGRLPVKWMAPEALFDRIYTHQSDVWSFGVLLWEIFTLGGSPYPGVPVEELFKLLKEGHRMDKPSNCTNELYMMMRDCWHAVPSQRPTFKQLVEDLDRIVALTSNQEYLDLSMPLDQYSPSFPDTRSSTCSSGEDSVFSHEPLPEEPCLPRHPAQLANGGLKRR

| IC50 (FGFR3 V555M) [nM] | IC50 (FGFR2 V564F) [nM] | IC50 (FGFR1 V561M) [nM] | IC50 (VEGFR2) [nM] | SMILES |
| --- | --- | --- | --- | --- |
| 0.22 | 0.18 | 0.37 | 84 | C[C@@H](Oc1ccc2[nH]nc(C(=O)Nc3cnn(CC4CCN(C)C4)c3)c2c1)c1c(Cl)cncc1Cl (stereo partly drawn) [Compound 41, 5-((R)-1-(3,5-dichloropyridin-4-yl)ethoxy)-N-(1-((1-methylpyrrolidin-3-yl)methyl)-1H-pyrazol-4-yl)-1H-indazole-3-carboxamide] |
| 0.44 | 0.43 | 1.1 | 169 | C[C@@H](Oc1ccc2[nH]nc(C(=O)Nc3cnn(CC4CCCN4C)c3)c2c1)c1c(Cl)cncc1Cl (stereo partly shown) [Compound 42] |
| 0.14 | 0.15 | 0.38 | 62 | C[C@@H](Oc1ccc2[nH]nc(C(=O)Nc3cnn(C4CCN(C)C4)c3)c2c1)c1c(Cl)cncc1Cl (stereo partly drawn) [Compound 43, 5-((R)-1-(3,5-dichloropyridin-4-yl)ethoxy)-N-(1-(1-methylpyrrolidin-3-yl)-1H-pyrazol-4-yl)-1H-indazole-3-carboxamide] |
| 0.25 | 0.93 | 2.3 | 144 | CC(Oc1ccc2[nH]nc(C(=O)Nc3cnn(CCCO)c3)c2c1)c1c(Cl)cncc1Cl (stereo not shown) [Compound 29, 5-(1-(3,5-dichloropyridin-4-yl)ethoxy)-N-(1-(3-hydroxypropyl)-1H-pyrazol-4-yl)-1H-indazole-3-carboxamide] |
| 0.92 | 0.47 | 2.2 | 114 | CC(Oc1ccc2[nH]nc(C(=O)Nc3cnn(CC(=O)N4CCCC4)c3)c2c1)c1c(Cl)cncc1Cl (stereo not shown) [Compound 23, 5-(1-(3,5-dichloropyridin-4-yl)ethoxy)-N-(1-(2-oxo-2-(pyrrolidin-1-yl)ethyl)-1H-pyrazol-4-yl)-1H-indazole-3-carboxamide] |
| 3 | 2.6 | 11 | 68 | CC(Oc1ccc2[nH]nc(C(=O)Nc3cnn(CC(F)(F)F)c3)c2c1)c1c(Cl)cncc1Cl (stereo not shown) [Compound 28, 5-(1-(3,5-dichloropyridin-4-yl)ethoxy)-N-(1-(2,2,2-trifluoroethyl)-1H-pyrazol-4-yl)-1H-indazole-3-carboxamide] |
| 0.14 | 0.1 | 0.34 | 62 | C[C@@H](Oc1ccc2[nH]nc(C(=O)Nc3cnn(CC4CCCCN4C)c3)c2c1)c1c(Cl)cncc1Cl (stereo partly drawn) [Compound 45, 5-((R)-1-(3,5-dichloropyridin-4-yl)ethoxy)-N-(1-((1-methylpiperidin-2-yl)methyl)-1H-pyrazol-4-yl)-1H-indazole-3-carboxamide] |
| 0.26 | 0.37 | 0.3 | 86 | C[C@H](O)Cn1cc(NC(=O)c2n[nH]c3ccc(O[C@H](C)c4c(Cl)cncc4Cl)cc23)cn1 [Compound 32, 5-((R)-1-(3,5-dichloropyridin-4-yl)ethoxy)-N-(1-((S)-2-hydroxypropyl)-1H-pyrazol-4-yl)-1H-indazole-3-carboxamide] |
| 2.1 | 1 | 3.4 | 184 | CCC(Oc1ccc2[nH]nc(C(=O)Nc3cnn(C)c3)c2c1)c1c(Cl)cncc1Cl (stereo not shown) [Compound 46, 5-(1-(3,5-dichloropyridin-4-yl)propoxy)-N-(1-methyl-1H-pyrazol-4-yl)-1H-indazole-3-carboxamide] |
| 0.39 | 0.33 | 1 | 99 | C[C@@H](O)Cn1cc(NC(=O)c2n[nH]c3ccc(O[C@H](C)c4c(Cl)cncc4Cl)cc23)cn1 [Compound 33, 5-((R)-1-(3,5-dichloropyridin-4-yl)ethoxy)-N-(1-((R)-2-hydroxypropyl)-1H-pyrazol-4-yl)-1H-indazole-3-carboxamide] |
| 0.64 | 0.37 | 1.7 | 152 | C[C@@H](Oc1ccc2[nH]nc(C(=O)Nc3cnn(Cc4ccncc4)c3)c2c1)c1c(Cl)cncc1Cl [Compound 50, (R)-5-(1-(3,5-dichloropyridin-4-yl)ethoxy)-N-(1-(pyridin-4-ylmethyl)-1H-pyrazol-4-yl)-1H-indazole-3-carboxamide] |
| 0.55 | 0.39 | 1.1 | 145 | C[C@@H](Oc1ccc2[nH]nc(C(=O)Nc3cnn(CC4CCCN(C)C4)c3)c2c1)c1c(Cl)cncc1Cl (stereo partly drawn) [Compound 44, 5-((R)-1-(3,5-dichloropyridin-4-yl)ethoxy)-N-(1-((1-methylpiperidin-3-yl)methyl)-1H-pyrazol-4-yl)-1H-indazole-3-carboxamide] |
| 7.6 | 3.7 | 36 | 729 | CC(Oc1ccc2[nH]nc(C(=O)Nc3ccc(CN4CCOCC4)cc3)c2c1)c1c(Cl)cncc1Cl (stereo not shown) [Compound 30, 5-(1-(3,5-dichloropyridin-4-yl)ethoxy)-N-(4-(morpholinomethyl)phenyl)-1H-indazole-3-carboxamide] |
| 1.3 | 0.43 | 3.3 | 201 | CC(Oc1ccc2[nH]nc(C(=O)Nc3cnn(CC(=O)N(C)C)c3)c2c1)c1c(Cl)cncc1Cl (stereo not shown) [Compound 24, 5-(1-(3,5-dichloropyridin-4-yl)ethoxy)-N-(1-(2-(dimethylamino)-2-oxoethyl)-1H-pyrazol-4-yl)-1H-indazole-3-carboxamide] |
| – | – | – | 73 | CCN1CCN(c2ccc(Nc3cc(N(C)C(=O)Nc4c(Cl)c(OC)cc(OC)c4Cl)ncn3)cc2)CC1 [Infigratinib, reference compound] |
| 0.27 | 0.16 | 0.29 | 89 | C[C@@H](Oc1ccc2[nH]nc(C(=O)Nc3cnn(C4CC(O)C4)c3)c2c1)c1c(Cl)cncc1Cl (stereo partly drawn) [Compound 35, (R)-5-(1-(3,5-dichloropyridin-4-yl)ethoxy)-N-(1-(3-hydroxycyclobutyl)-1H-pyrazol-4-yl)-1H-indazole-3-carboxamide] |
| 0.21 | 0.26 | 3.6 | 145 | CC(Oc1ccc2[nH]nc(C(=O)Nc3cnn(CCN4CCCC4)c3)c2c1)c1c(Cl)cncc1Cl (stereo not shown) [Compound 25, 5-(1-(3,5-dichloropyridin-4-yl)ethoxy)-N-(1-(2-(pyrrolidin-1-yl)ethyl)-1H-pyrazol-4-yl)-1H-indazole-3-carboxamide] |
| 0.59 | 0.4 | 3.7 | 61 | C[C@@H](Oc1ccc2[nH]nc(C(=O)Nc3cnn(CC(C)(C)O)c3)c2c1)c1c(Cl)cncc1Cl [Compound 38, (R)-5-(1-(3,5-dichloropyridin-4-yl)ethoxy)-N-(1-(2-hydroxy-2-methylpropyl)-1H-pyrazol-4-yl)-1H-indazole-3-carboxamide] |
| 0.07 | 0.11 | 0.93 | 54 | CCN1CC(n2cc(NC(=O)c3n[nH]c4ccc(O[C@H](C)c5c(Cl)cncc5Cl)cc34)cn2)C1 [Compound 31, (R)-5-(1-(3,5-dichloropyridin-4-yl)ethoxy)-N-(1-(1-ethyl-azetidin-3-yl)-1H-pyrazol-4-yl)-1H-indazole-3-carboxamide] |
